Source: patent publication US20240093251A1, “Reactivity of Nitrile Hydratase by Aldehyde” (Mitsubishi Chemical Corporation, priority 2021, published 2024)
Structures can show the parent of a compound that is named as a salt.

How the values were obtained:
Assay type in all cases: biochemical
nitrile hydratase [1] = assay: Amide formation reaction from acrylonitrile with Rhodococcus rhodochrous J-1 bacterial cells, acetaldehyde in acrylonitrile (Examples 1-4); details: for Concentration ratio (4 hr) (acrylonitrile concentration with aldehyde / without aldehyde x100): 20° C.
Experimental: Rhodococcus rhodochrous J-1 strain (FERMBP-1478) having nitrile hydratase activity was aerobically cultured in a medium (pH7.0) containing glucose (2.0%), urea (1.0%), peptone (0.5%), yeast extract (0.3%) and cobalt chloride (0.05%) at 30° C. The medium was washed with a 50 mM phosphate buffer (pH7.0) to obtain a bacterial suspension (3% on a dry-cell basis).
A cyan 1000-ppm standard solution (manufactured by Hayashi Pure Chemical Ind., Ltd.) was added to acrylonitrile for industrial use (manufactured by Mitsubishi Chemical Corporation) such that the hydrocyanic acid concentration became 2.1 ppm on a weight basis. […]
To a glass case (internal volume: 13.5 ml) with a lid, 3.15 g of a phosphate buffer (pH7.0), and 3.15 g of a diluted bacterial cell solution, which was prepared by diluting bacterial cells as mentioned above with the phosphate buffer (pH7.0) such that initial activity thereof in a reaction solution became 1460 U, were added. The mixture was stirred while controlling the temperature at 20° C. […] Four hours later, the reaction solution was collected and the concentration of acrylonitrile was measured by gas chromatography (column: PoraPack-PS (manufactured by Waters Corporation), 1 m, 210° C., carrier gas: helium, detector: FID).
(§1) The concentration ratio can be obtained in accordance with the following expression:
(§2) Concentration ratio [%]=(acrylonitrile concentration of the case where aldehyde was added/the case where aldehyde was not added)×100

nitrile hydratase [2] = assay: Test Example 1: effect of compounds on the amide formation reaction with Rhodococcus rhodochrous J-1 bacterial cells; details: hydrocyanic acid 2.0 ppm in acrylonitrile, 25° C.
Experimental: (§3) Acrylonitrile was prepared so as to have a hydrocyanic acid concentration of 2.0 ppm.
A diluted solution containing an aldehyde compound diluted with a phosphate buffer (pH7.0) so as to obtain a concentration of 5 ppm or 10 ppm in the reaction solution, was added, and finally the phosphate buffer (pH7.0) was added to obtain a total amount of 6.2 g. The obtained solution was stirred while the temperature thereof was controlled at 25° C. To this solution, acrylonitrile (4.8 mL (acrylamide 50% equivalent, 38 wt %)) was added to initiate a reaction. At the time points of 3.5, 4.5, 5.0, and 6.0 hours later, the reaction solution was collected and the concentration of acrylonitrile was measured by gas chromatography (column: PoraPack-PS (manufactured by Waters Corporation), 1 m, 210° C., carrier gas: helium, detector: FID).
as §1, §2

[3] = tested on: nitrile hydratase derived from Rhodococcus rhodochrous M8 strain; assay: Example 5: amide compound formation reaction by M8 strain-derived transformant (ATCC12674/pSJ-N01A); details: hydrocyanic acid 2.0 ppm in acrylonitrile, 25° C.
Experimental: (§4) The transformant (ATCC12674/pSJ-N01A) obtained in the above step was inoculated in MYK medium (50 μg/ml kanamycin) and subjected to shaking culture performed at 30° C. for two days. The cultured transformant (1%) was inoculated in GGPK medium (1.5% glucose, 1% monosodium glutamate, 0.1% yeast extract, 0.05% K2HPO4, 0.05% KH2PO4, 0.05% […], 1% CoCl2, 0.1% urea, 50 μg/ml kanamycin, pH7.2). Shaking culture was carried out at 30° C. for three days and bacterial cells were centrifugally collected. Thereafter, the bacterial cells were washed with a 100 mM phosphate buffer (pH7.0) and a bacterial suspension was prepared.
According to Example 1, the effect of propionaldehyde on amide compound formation reaction by M8 strain-derived transformant (ATCC12674/pSJ-N01A) was evaluated.
as §3
To a glass case (internal volume: 13.5 ml) with a lid, 1.00 g of a diluted bacterial-cell solution, which was prepared by diluting bacterial cells as mentioned above with the phosphate buffer (pH7.0) such that the initial amount of the bacterial cells in a reaction solution became 5.6 mg; and a diluted solution, which was prepared by diluting each aldehyde compound with a phosphate buffer (pH7.0) so as to obtain a concentration thereof of 10 ppm, 25 ppm or 50 ppm in a reaction solution, were added; and finally, a phosphate buffer (pH7.0) was added up to a total amount of 9.0 g. The solution obtained was stirred while the temperature thereof was controlled at 25° C. To this solution, acrylonitrile (1.0 g) was added to initiate a reaction. Six hours later, the reaction solution was collected and the concentration of acrylonitrile was measured by gas chromatography (column: PoraPack-PS (manufactured by Waters Corporation), 1 m, 210° C., carrier gas: helium, detector: FID).
as §1, §2

[4] = tested on: nitrile hydratase derived from Pseudonocardia thermophila JCM3095 strain; assay: Example 6: amide compound formation reaction by transformant (ATCC12674/pSJ-N02A); details: propionaldehyde 7 ppm in reaction solution, propionaldehyde/cyan 10.7 mol/mol, hydrocyanic acid 2.0 ppm in acrylonitrile, 25° C.
Experimental: as §4, with “(ATCC12674/pSJ-N02A)” for “(ATCC12674/pSJ-N01A)”
According to Example 1, the effect of propionaldehyde on amide compound formation reaction by transformant (ATCC12674/pSJ-N02A) was evaluated.
Acrylonitrile was prepared so as to have a hydrocyanic acid concentration of 2.0 ppm. […]

[5] = 5 ppm addition in reaction solution
[6] = 10 ppm addition in reaction solution

| Compound | Concentration Ratio (3.5 hr) (nitrile hydratase [2]; [5]) [%] | Concentration Ratio (6 hr) (nitrile hydratase [2]; [5]) [%] | also measured |
| --- | --- | --- | --- |
| CC=O [No. 2, acetaldehyde] | 7.5 | 9.2 | Concentration ratio (4 hr) (acrylonitrile concentration with aldehyde / without aldehyde x100) (nitrile hydratase [1]; Example 1: hydrocyanic acid 2.1 ppm, acetaldehyde 10 ppm in acrylonitrile, acetaldehyde/cyan 2.9 mol/mol): 38.8%; Concentration ratio (4 hr) (acrylonitrile concentration with aldehyde / without aldehyde x100) (nitrile hydratase [1]; Example 2: hydrocyanic acid 2.1 ppm, acetaldehyde 6 ppm in acrylonitrile, acetaldehyde/cyan 1.8 mol/mol): 76.1%; Concentration ratio (4 hr) (acrylonitrile concentration with aldehyde / without aldehyde x100) (nitrile hydratase [1]; Example 3: hydrocyanic acid 2.1 ppm, acetaldehyde 3 ppm in acrylonitrile, acetaldehyde/cyan 0.9 mol/mol): 92.5%; Concentration ratio (4 hr) (acrylonitrile concentration with aldehyde / without aldehyde x100) (nitrile hydratase [1]; Example 4: hydrocyanic acid 1.1 ppm, acetaldehyde 10 ppm in acrylonitrile, acetaldehyde/cyan 5.6 mol/mol): 9.8%; rate of a reaction that converts acrylonitrile to an amide compound (nitrile hydratase [1]; compared to Comparative Example without acetaldehyde, hydrocyanic acid 2.1 ppm or 1.1 ppm): high |
| CCC=O [No. 3, propionaldehyde] | 2.2 | 1.4 | Concentration Ratio (6 hr) ([3]; propionaldehyde 10 ppm in reaction solution, propionaldehyde/cyan 22.9 mol/mol): 82.7%; Concentration Ratio (6 hr) ([3]; propionaldehyde 25 ppm in reaction solution, propionaldehyde/cyan 57.1 mol/mol): 70.4%; Concentration Ratio (6 hr) ([3]; propionaldehyde 50 ppm in reaction solution, propionaldehyde/cyan 114.3 mol/mol): 60.0%; Concentration Ratio (6 hr) [4]: 33.3% |
| CCCC=O [No. 4, butyraldehyde] | 3.1 | 2.7 | – |
| CCCCCC=O [No. 5, hexanal] | 83.9 | 17.8 | – |
| CCCCCCC=O [No. 6, heptanal] | 62.1 | 17.6 | – |
| CCCCCCCC=O [No. 7, octanal] | 106.4 | 117.5 | Concentration Ratio (3.5 hr) (nitrile hydratase [2]; [6]): 72.9%; Concentration Ratio (6 hr) (nitrile hydratase [2]; [6]): 11.6% |
| CCCCCCCCC=O [No. 8, nonanal] | 97.1 | 81.4 | Concentration Ratio (3.5 hr) (nitrile hydratase [2]; [6]): 80.1%; Concentration Ratio (6 hr) (nitrile hydratase [2]; [6]): 35.0% |
| CCCCCCCCCC=O [No. 9, decanal] | 96.1 | 67.0 | – |
| O=CO [No. 10, formic acid, reference compound] | 99.6 | 88.9 | Concentration Ratio (3.5 hr) (nitrile hydratase [2]; [6]): 95.1%; Concentration Ratio (6 hr) (nitrile hydratase [2]; [6]): 94.9% |
| O=CC=O [No. 11, dialdehyde oxalate] | 33.4 | 12.2 | – |
| OC[C@@H](O)[C@@H](O)CO [No. 12, meso-erythritol, reference compound] | 103.3 | 118.2 | Concentration Ratio (3.5 hr) (nitrile hydratase [2]; [6]): 97.8%; Concentration Ratio (6 hr) (nitrile hydratase [2]; [6]): 97.3% |
| O=Cc1ccccc1 [No. 15, benzaldehyde] | 92.0 | 66.2 | – |
| O=CC=Cc1ccccc1 [No. 16, cinnamaldehyde] | 97.0 | 102.6 | Concentration Ratio (3.5 hr) (nitrile hydratase [2]; [6]): 99.2%; Concentration Ratio (6 hr) (nitrile hydratase [2]; [6]): 87.1% |
| C=C(C)C1CC=C(C=O)CC1 (stereo not shown) [No. 17, perillaldehyde] | 82.8 | 59.6 | – |
| COc1cc(C=O)ccc1O [No. 18, vanillin] | 92.9 | 71.7 | – |
| CC1NC(C)NC(C)N1 (stereo not shown) [No. 19, acetaldehyde ammonia] | 30.0 | 3.3 | – |
| C1N2CN3CN1CN(C2)C3 [No. 20, hexamethylenetetramine] | 0.3 | 2.4 | – |
| paraformaldehyde [No. 14] | 1.1 | 1.1 | – |
